Assay results: US6068687A, “Azo dyes and their preparation and use” (Ilford Imaging Switzerland GmbH, priority 1997, dated 2000)

Experiments:
[1] = Dye solubility in deionised water (spectroscopic determination in filtered solution); type: physicochemical; conditions: for Solubility: deionised water, stirred 1 hour at 50° C, cooled to 20° C, filtered; for Solubility compared with previously known dye (in words): comparison with known dye, Table 4
Description: An excess of dye was dispersed in deionised water and this dispersion was stirred for 1 hour at 50° C. Then the mixture was cooled down to 20° C., centrifuged and filtered through a Millipore® filter of 0.5 μm pore diameter. Dye solubility was determined spectroscopically in the filtered solution.

[2] = Hydrolysis stability (pH change of 5% aqueous dye solution on storage); type: physicochemical; conditions: for pH change during storage: 5% by weight aqueous solution, initial pH 7.0, 60° C, 30 days; for Stability against hydrolysis compared with known dye (2) (in words): comparison with dye (2), Table 4
Description: An aqueous solution (5% by weight) was prepared and the pH value of this solution was adjusted to 7.0. The solution was filtered through a Millipore® filter of 0.5 μm pore diameter. The filtered solution was then heated to a temperature of 60° C. for 30 days, cooled down afterwards to a temperature of 20° C. and the pH value was measured again. The difference of the pH values before and after storage is an indicator of hydrolysis stability.

[3] = Storage stability of inks (precipitation); type: physicochemical; set-up: key: ⊕: No precipitation; .diamond.: Slight precipitation; .O slashed.: Heavy precipitation; conditions: ink, 0° C, 30 days, hermetically sealed bottles
Description: (§1) 100 g of each ink were prepared by heating the necessary components from Table 3 (all amounts are indicated in grams) together with water at a temperature of 50° C. under stirring for one hour. The resulting solution was cooled down to 20° C., its pH value was adjusted to 7.5 and the solution was passed through a Millipore® filter of 0.5 μm pore diameter.
The inks were stored at a temperature of 0° C. for 30 days in hermetically sealed bottles. The quantity of precipitate eventually formed was evaluated in the following way: […]

[4] = Jetting stability of inks (IRIS ink jet printer nozzle); set-up: key: ⊕: Unchanged; .diamond.: Slightly changed; .O slashed.: Heavily changed; conditions: 100 hours continual jetting, exit angle and nozzle condition
Description: as §1
The inks were expelled continually during 100 hours from a nozzle of the IRIS ink jet printer. Afterwards the change of the exit angle of the ink stream and the condition of the nozzle were evaluated in the following way: […]

Row | Solubility [1] [g per 100 ml] | pH change during storage [2] | (C) Storage stability [3] | (D) Jetting stability [4] | Compound | Solubility compared with previously known dye (in words) [1] | Stability against hydrolysis compared with known dye (2) (in words) [2]
1 | 12 | -0.2 | .diamond. | .diamond. | Nc1ccc2cc(S(=O)(=O)O)cc(O)c2c1N=Nc1ccc(Nc2nc(NCCO)nc(Nc3cccc(S(=O)(=O)O)c3)n2)cc1S(=O)(=O)O [(1)] |  | 
2 | 34 | -0.5 | ⊕ | ⊕ | COc1cc(N=Nc2cc(S(=O)(=O)O)c3cccc(S(=O)(=O)O)c3c2)c(C)cc1Nc1nc(SCCCS(=O)(=O)O)nc(SCCCS(=O)(=O)O)n1 [(2)] |  | 
3 | 32 | 0 | ⊕ | ⊕ | CCOc1nc(Nc2cc(C)c(N=Nc3cc(S(=O)(=O)O)c4cccc(S(=O)(=O)O)c4c3)cc2OC)nc(SCCCS(=O)(=O)O)n1 [(100)] | considerably higher solubility than the previously known dye (2) | much better stability against hydrolysis than the known dye (2)
4 | 32 | -0.1 | ⊕ | ⊕ | CCOc1nc(Nc2ccc(N=Nc3c(N)ccc4cc(S(=O)(=O)O)cc(O)c34)c(S(=O)(=O)O)c2)nc(SCCCS(=O)(=O)O)n1 [(113)] | considerably higher solubility than the previously known dye (2) | much better stability against hydrolysis than the known dye (2)
5 |  |  | ⊕ | ⊕ | CCN(c1ccccc1)c1nc(Nc2cc(S(=O)(=O)O)cc3cc(S(=O)(=O)O)c(N=Nc4ccccc4S(=O)(=O)O)c(O)c23)nc(SCCCS(=O)(=O)O)n1 [(117)] |  | 
6 | 34 | 0 | ⊕ | ⊕ | COc1cc(N=Nc2cc(S(=O)(=O)O)c3cccc(S(=O)(=O)O)c3c2)c(C)cc1Nc1nc(SCCCS(=O)(=O)O)nc(N(C)CCO)n1 [(120)] | considerably higher solubility than the previously known dye (2) | much better stability against hydrolysis than the known dye (2)
7 | 38 | -0.1 | ⊕ | ⊕ | Nc1ccc2cc(S(=O)(=O)O)cc(O)c2c1N=Nc1ccc(Nc2nc(SCCCS(=O)(=O)O)nc(N(CCO)CCO)n2)cc1S(=O)(=O)O [(121)] | considerably higher solubility than the previously known dye (2) | much better stability against hydrolysis than the known dye (2)
